Measured values as given in patent publication US9981997B2, “Chemical reagents for attaching affinity molecules on surfaces” (ARIZONA BOARD OF REGENTS ON BEHALF OF ARIZONA STATE …, priority 2013, dated 2018).
Several values for one entry are separate records, joined by “and”; a condition that tells them apart may be missing. Equal values may be shown once.

How the values were obtained:
[1] = biological target: T1, human α-thrombin (Homo sapiens, UniProt P00734); test: AFM force measurement: unbinding of tip-tethered affinity molecule from thrombin immobilized on mica; assay type: binding
T1 construct: protein cognates human α-thrombin and human α5β1-integrin immobilized on mica surfaces; purchased Abeam (so in the source)
Excerpt: (§1) The attachment chemistry was validated using the functionalized SiN tips to measure forces of affinity molecules unbinding from their respective protein cognates. The protein sample was immobilized on APS-modified mica substrate using glutaraldehyde as a crosslinker (for procedure, see Wang, et al. Biophys. J. 2002, 83, 3619-3625). Initially, about 1000 force-distance curves were collected from each of measurement experiments with either D-1b against thrombin or P-1b against integrin α5β1. The solid lines in Panel A and D of FIG. 14 show exemplary retracting force-distance curves used for data analysis, which accounts for more than one fourth of the collections. The selection was based on an assumption that a rupture directly related to unbinding of an affinity molecule from its protein cognate is likely to take place around the distance corresponding to the stretched length of a PEG linker (˜13.5 nm in this instance). A distance histogram was created from each data set (Panel B and E of FIG. 14). […] Ratios of the rupture events between these two regions were 1:1.2 for the TBA tip against the thrombin protein and 1:1.3 for the RGD tip against the integrin protein respectively. After finishing the initial measurements, a thrombin or integrin solution was injected to the flow cell accordingly, and then another set of force curves were collected to determine the specificity of unbinding (see, for example, Lee, et al. Micron 2007, 38, 446-461). A disappearance of the specific unbinding ruptures from the force-distance curves was anticipated because the interactions of the affinity molecule tethered to the tip with its cognates on the substrate were blocked by protein from the solution. In fact, force-distance curves were obtained appearing like the dotted lines in Panel A and D of FIG. 14. Overall, the ruptures around the longer distances were reduced to a great extent and those around the shorter distances remained (Panel C and F of FIG. 14) in comparison with those prior to blocking. The rupture ratios between these two regions were changed to 12.3:1 for the TBA tip against the thrombin modified surface and 12:1 for the RGD tip against the integrin modified surface.
(§2) AFM tips (a batch of four or five) were first immersed in ethanol for five minutes, dried with ultrapure argon, and then treated with ultraviolet-ozone in a Boekel UV cleaner for 15 minutes and oxygen plasma (medium power) in a Harrick Plasma Cleaner for 2 minutes. These tips were immediately placed in a petri dish, to which an aqueous solution of compound 3 (50 mM) was added. After one hour, the tips were taken out, rinsed with water thrice, and dried gently with nitrogen. […]

[2] = biological target: bovine serum albumin (BSA) (Bos taurus, UniProt P02769); test: AFM force measurement: non-specific interaction with BSA immobilized mica; assay type: binding; details: BSA on the substrate (non-specific control)
Sequence of bovine serum albumin (BSA) (P02769 25-607): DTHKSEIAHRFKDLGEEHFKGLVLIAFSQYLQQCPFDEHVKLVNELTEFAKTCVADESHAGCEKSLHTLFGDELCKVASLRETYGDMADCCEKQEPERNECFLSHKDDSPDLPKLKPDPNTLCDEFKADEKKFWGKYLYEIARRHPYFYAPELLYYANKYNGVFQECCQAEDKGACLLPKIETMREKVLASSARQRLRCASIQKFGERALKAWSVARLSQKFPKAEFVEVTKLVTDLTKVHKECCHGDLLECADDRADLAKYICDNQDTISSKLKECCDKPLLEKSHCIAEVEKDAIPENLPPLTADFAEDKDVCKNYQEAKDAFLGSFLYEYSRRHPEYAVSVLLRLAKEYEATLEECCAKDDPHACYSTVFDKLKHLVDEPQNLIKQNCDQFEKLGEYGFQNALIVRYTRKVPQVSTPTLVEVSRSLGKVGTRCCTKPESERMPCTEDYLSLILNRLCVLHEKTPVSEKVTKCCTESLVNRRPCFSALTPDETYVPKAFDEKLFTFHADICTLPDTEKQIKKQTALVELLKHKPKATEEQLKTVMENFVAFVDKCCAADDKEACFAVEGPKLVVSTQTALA
Excerpt: (§3) Non-specific interactions between functionalized AFM tips with both bare and bovine serum albumin (BSA) immobilized mica substrates were examined. The functionalized AFM tips generally formed featureless force-distance curves on these surfaces. Only 6.1% of collected curves show unbinding ruptures from the nonspecific TBA-BSA interaction (median force 14.4 pN) and 5.6% from the nonspecific RGD-BSA interaction (median force 15.3 pN) around the expected distance, respectively. The functionalized tips interacted with the bare mica surfaces with even lower statistics and smaller unbinding forces.
Freshly cleaved mica sheets (1.5×2.0 cm^2) were immersed in an aqueous solution of APS (50 mM). After one hour, the mica sheets were taken out and rinsed thoroughly with water thrice. In a humid surrounding, an aqueous solution of glutaraldehyde (1 mM, 200 μL) was added on the APS mica sheet. After 10 minutes, the mica substrates were rinsed with water thrice, and then a solution of protein in a 1×PBS buffer (3 μL) was placed on it, incubated for one hour, and rinsed with the 1×PBS buffer thrice. In general, protein concentrations were made around 10 ng/μL for force measurements and 0.05 ng/μL for recognition imaging. It should be noted that integrin we used was a lyophilized product from a solution containing: 0.26 mg/ml α5β1, 20 mM Tris-HCl pH 7.5, 150 mM NaCl, 2 mM MgCl2, 0.2% Triton X-100, which was reconstituted by dissolving it in 1×PBS buffer.
(§4) An Agilent AFM 5500 (with inverted light microscope) system was used for the AFM experiments. Both force measurement and recognition imaging were carried out in 1×PBS buffer (pH 7.4). For force measurements, Veeco probes (Bicker, SiN tips) were used, having a force constant 0.05 N/m and a gold back coating, and the loading rate was 25000 pN/s.
(§5) Topography images, recognition images and force spectra were recorded using Agilent PicoView software. The force-distance curves were analyzed in PicoView, and the corresponding unbinding forces were plotted in the form of histograms and fitted into the Gaussian function using MathWorks-MATLAB.

[3] = AFM force measurement: non-specific interaction with bare mica; assay type: binding; details: bare mica substrate
Excerpt: as §3, §4, §5

[4] = Stability of linkers, NMR monitoring and storage; assay type: physicochemical; details: for stability by NMR monitoring: pure form and in chloroform, room temperature, at least two days; for storage stability: stored at −78° C. for one year
Excerpt: The molecular anchor (3) was synthesized simply by reacting APS (1) with 2-(cyclooct-2-yn-1-yloxy)acetic acid (2) in the presence of 1-ethyl-3-(3-dimethylaminopropyl)carbodiimide (EDC, FIG. 10). The desired product was separated as a white solid by silica gel chromatography with a yield of 60%. The molecular linker for RI (6a, FIG. 4) was synthesized starting from hexaethylene glycol. First, azido-(CH2CH2O)6-Ts (4, Ts=tosyl) was synthesized in a multi-gram scale (Loiseau, F. A. et al. J. Org. Chem. 2004, 69, 639-647; Svedhem, S.; et al. J. Org. Chem. 2001, 66, 4494-4503). The azido-(CH2CH2O)12—OH (5) was prepared in a 71% yield by reacting 4 with sodium hexaethylene glycoxide (3 times excess) that was generated in situ by treating hexaethylene glycol with sodium hydride. In presence of potassium t-butoxide, 5 reacted with divinyl sulfone to furnish the desired product 6a in a yield of 64%. In the same manner, the linker azido-(CH2CH2O)36-vinyl sulfone (6b) was synthesized by reacting azido-dPEG®—alcohol with divinyl sulfone in a yield close to that of 6a (FIG. 5). These two products were characterized with FTIR, NMR, and mass spectroscopy. Although vinyl sulfones may react with azides in presence of CuSO4 and sodium ascorbate, it was determined by NMR monitoring that 6a and 6b were stable both in its pure form and in chloroform at room temperature at least for two days. […] Maleimide is another reactive group that is functionally similar to vinyl sulfone in bioconjugation, but it may be less amenable to coexisting with azide because a [3+2]cycloaddition could spontaneously take place between these two functions in some circumstances. In addition, maleimide can undergo the thiol exchanges and ring hydrolysis (above pH 8), which may complicate outcomes of the conjugating reaction. Thus, vinyl sulfone was chosen as a Michael addition receptor of thiols in this attachment chemistry.

[5] = Water contact angle of derivatized silicon oxide surfaces; assay type: physicochemical; details: water on derivatized silicon oxide surface
Method: (§6) A silicon substrate (1×1 cm2) was cleaned thoroughly with ethanol, dried by nitrogen, and then treated with oxygen plasma for two minutes using Harrick Plasma Cleaner (medium power). APTES was deposited on the substrate using a vapor deposition method (H. Wang, et al. Biophys. J., 2002, 83, 3619-3625). The aminated substrate was immersed in a solution of compound 2 (1 mg/mL). NHS/EDC (1 mg each) and triethyl amine (5 μL) in dry dicholoromethane. After three hours, the substrates were taken out and rinsed with dry dichloromethane (twice) followed by ethanol (twice) and dried with argon.
(§7) A silicon substrate (1×1 cm2) was cleaned as described with respect to reactions 1-a nd 1-b, and then immersed in an aq. solution of silatrane derivative 3 (50 mM). After one hour, the substrates were taken out and rinsed five times with deionized water and dried with argon.
(§8) Contact angles were measured using Kruss EasyDrop. For the measurement, 2 μL of water droplets were deposited on different positions of a substrate placed on the sample plate and contact angles were measured in the video window of manufacturer's DSA software. Thicknesses of the monolayers were measured using Gaertner Scientific Corporation ellipsometer. For the thickness calculation, the refractive indices of both silicon oxide layers and organic layers were assumed to be 1.46 (T. Nguyen et al. J. Adhesion, 1995, 48, 169-194). Five different arbitrary positions on the substrate were chosen and the average value was taken. The thickness of the monolayer was determined by subtracting the silicon oxide thickness from the measured one.

[6] = Ellipsometric thickness of monolayers on silicon oxide; assay type: physicochemical; details: organic layer on silicon oxide, ellipsometry
Method: as §6, §7, §8

[7] = biological target: T2, human α5β1 integrin (Homo sapiens, UniProt P05556+P08648); test: AFM force measurement: unbinding of tip-tethered affinity molecule from integrin immobilized on mica; assay type: binding
T2 construct: purchased YO Proteins AB (Sweden)
T2 sequence (P08648 42-894 limits assumed): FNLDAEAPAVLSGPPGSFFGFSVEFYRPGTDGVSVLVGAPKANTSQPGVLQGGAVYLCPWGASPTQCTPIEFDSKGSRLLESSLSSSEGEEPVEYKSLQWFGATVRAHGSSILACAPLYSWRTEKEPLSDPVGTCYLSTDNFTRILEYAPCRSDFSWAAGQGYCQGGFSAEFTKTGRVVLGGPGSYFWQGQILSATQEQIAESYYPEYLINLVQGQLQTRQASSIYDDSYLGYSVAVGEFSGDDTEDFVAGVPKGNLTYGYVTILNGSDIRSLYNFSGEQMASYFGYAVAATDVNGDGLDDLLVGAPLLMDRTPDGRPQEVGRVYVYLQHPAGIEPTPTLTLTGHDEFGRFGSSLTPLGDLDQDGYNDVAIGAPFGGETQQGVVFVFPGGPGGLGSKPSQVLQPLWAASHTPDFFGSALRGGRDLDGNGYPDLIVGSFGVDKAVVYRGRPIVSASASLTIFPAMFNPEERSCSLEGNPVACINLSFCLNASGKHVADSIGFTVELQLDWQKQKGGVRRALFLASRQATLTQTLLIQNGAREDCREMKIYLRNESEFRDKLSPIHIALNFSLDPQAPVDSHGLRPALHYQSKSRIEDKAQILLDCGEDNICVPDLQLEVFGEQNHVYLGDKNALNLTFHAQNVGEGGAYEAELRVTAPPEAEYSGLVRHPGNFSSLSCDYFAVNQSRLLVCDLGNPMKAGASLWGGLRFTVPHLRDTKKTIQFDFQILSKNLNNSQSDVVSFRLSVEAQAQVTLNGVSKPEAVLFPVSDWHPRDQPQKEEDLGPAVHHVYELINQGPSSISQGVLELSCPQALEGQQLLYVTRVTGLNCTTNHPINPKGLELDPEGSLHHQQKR
T2 sequence (P08648 895-1049 partner limits assumed): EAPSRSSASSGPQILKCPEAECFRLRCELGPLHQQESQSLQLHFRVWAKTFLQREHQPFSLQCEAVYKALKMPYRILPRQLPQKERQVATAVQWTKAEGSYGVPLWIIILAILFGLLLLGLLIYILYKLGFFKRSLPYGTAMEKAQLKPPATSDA
T2 sequence (P05556 21-798): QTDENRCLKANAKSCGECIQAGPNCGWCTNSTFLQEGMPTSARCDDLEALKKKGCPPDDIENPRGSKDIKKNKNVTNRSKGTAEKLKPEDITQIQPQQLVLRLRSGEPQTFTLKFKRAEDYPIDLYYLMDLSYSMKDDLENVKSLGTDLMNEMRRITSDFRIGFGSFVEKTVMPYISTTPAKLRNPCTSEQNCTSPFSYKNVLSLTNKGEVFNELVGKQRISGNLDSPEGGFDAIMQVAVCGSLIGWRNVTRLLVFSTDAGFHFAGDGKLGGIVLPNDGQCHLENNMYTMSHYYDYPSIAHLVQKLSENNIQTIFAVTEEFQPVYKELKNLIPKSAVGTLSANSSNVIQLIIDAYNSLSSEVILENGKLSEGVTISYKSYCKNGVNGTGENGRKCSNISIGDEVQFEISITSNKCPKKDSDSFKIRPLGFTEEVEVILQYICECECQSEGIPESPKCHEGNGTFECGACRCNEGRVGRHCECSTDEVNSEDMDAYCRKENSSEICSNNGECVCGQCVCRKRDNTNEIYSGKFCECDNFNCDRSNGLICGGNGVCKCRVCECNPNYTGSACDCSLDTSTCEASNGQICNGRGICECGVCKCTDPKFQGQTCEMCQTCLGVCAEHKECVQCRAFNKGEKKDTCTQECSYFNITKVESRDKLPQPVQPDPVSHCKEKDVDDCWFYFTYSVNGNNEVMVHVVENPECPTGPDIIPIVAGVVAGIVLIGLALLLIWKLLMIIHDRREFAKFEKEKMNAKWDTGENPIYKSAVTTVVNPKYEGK
Excerpt: as §1, §2

[8] = tip blocked with thrombin solution, thrombin on mica
[9] = tip blocked with integrin solution, integrin on mica

5′-GGTTGGTGTGGTTGG [TBA]
Unbinding force (pN) ([1]; functionalized SiN tip against thrombin on mica, Gaussian fit of force histogram, loading rate 25000 pN/s): 80.2 ± 34.5 pN
Unbinding events (%) ([1]; functionalized SiN tip against thrombin on mica, ruptures around the specific unbinding distance over total force curves): 26.5%
Unbinding events (%) [1, 8]: 7.0%
Unbinding force (pN) [1, 8]: 15.6 ± 12.9 pN
Unbinding events (%) [2]: 6.1%
Unbinding force (pN) [2]: 14.4 pN and 14.4 ± 9.4 pN
Unbinding events (%) [3]: 3.0%
Unbinding force (pN) [3]: 6.9 ± 3.8 pN

C=CS(=O)(=O)CCOCCOCCOCCOCCOCCOCCOCCOCCOCCOCCOCCOCCN=[N+]=[N-] [6a, 1-Azido-35-(2-(vinylsulfonyl)ethoxy)-3n33^3-undecaoxapentatriacontane]
stability by NMR monitoring [4]: stable
storage stability [4]: no degradation has been observed

C=CS(=O)(=O)CCOCCOCCOCCOCCOCCOCCOCCOCCOCCOCCOCCOCCOCCOCCOCCOCCOCCOCCOCCOCCOCCOCCOCCOCCOCCOCCOCCOCCOCCOCCOCCOCCOCCOCCOCCOCCN=[N+]=[N-] [6b, 1-Azido-35-(2-(vinylsulfonyl)ethoxy)-3n105^3-pentatricontaoxaheptahectane]
stability by NMR monitoring [4]: stable
storage stability [4]: no degradation has been observed

CCO[Si](CCCN)(OCC)OCC [APTES, (3-Arninopropyl)triethoxysilane]
Contact Angle (°) [5]: ~46 °
Thickness (Å) [6]: about 7.3 Å

O=C(O)COC1C#CCCCCC1 (centres unmarked) [compound 2, 2-(cyclooct-2-yn-1-yloxy)acetic acid]
Contact Angle (°) [5]: 76 °
Thickness (Å) [6]: ~15.9 Å

O=C(COC1C#CCCCCC1)NCCC[Si-]123OCC[N+]1(CCO2)CCO3 (centres unmarked) [compound 3, N-(3-(silatranyl)propyl)-2-(cyclooct-2-yn-1-yloxy)acetamide]
Contact Angle (°) [5]: ~78 °
Thickness (Å) [6]: 15.3 Å

cyclo(RGDfC)
Unbinding events (%) ([7]; functionalized SiN tip against integrin on mica): 29.4%
Unbinding force (pN) ([7]; functionalized SiN tip against integrin on mica, Gaussian fit, loading rate 25000 pN/s): 48.0 ± 27.8 pN
Unbinding events (%) [7, 9]: 6.7%
Unbinding force (pN) [7, 9]: 11.1 ± 10.7 pN
Unbinding events (%) [2]: 5.6%
Unbinding force (pN) [2]: 15.3 pN and 15.3 ± 14.4 pN
Unbinding events (%) [3]: 2.5%
Unbinding force (pN) [3]: 6.7 ± 4.0 pN
